From PMC9112550, “Optimization of the antimicrobial peptide Bac7 by deep mutational scanning” (BMC Biology, 2022)

Test system: E. coli TOP10
Experiment: Single-strain growth experiments, intracellular peptide expression
Assay type: cell-based
Conditions: negative control, expressed in E. coli TOP10
Procedure: To assess the antimicrobial activity of single peptides when expressed intracellularly in E. coli TOP10, a monoclonal strain carrying the pBAD plasmid containing a single peptide gene was picked from solid media, incubated overnight, and inoculated into a fresh LB medium containing 0.3% (w/v) L-arabinose to a final OD of 0.01 into 96-well microtiter plate (Greiner). Growth of strains was recorded by measuring OD in a Tecan Infinite 200 PRO (Tecan, Männedorf, CH) for at least 4 h (37°C, 1.5 mm orbital shaking).

In the case of “HNP-1: inactive peptide HNP-1 expressed as the negative control”, the “activity on intracellular expression” value is reported as “inactive”.
